From patent US20240116946A1 (Gilead Sciences, Inc., priority 2022, published 2024)
Read-outs that look alike come from different tables or passages of the source.

Key:
[1] = biological target: recombinant SARS-CoV-2 Main protease (Mpro) (Severe acute respiratory syndrome coronavirus 2 (2019-nCoV) (SARS-CoV-2), UniProt P0DTD1); assay: Cov Mpro Biochemical IC50 Assay; conditions: read-out: MPro IC50
SARS-CoV-2-NLuc = assay: microbe, parasite or virus in culture; assay type: cell-based, SARS Coronavirus 2
[2] = recombinant SARS-CoV-2 Mpro 7.5 nM, fluorogenic peptide substrate 40 μM
[3] = Severe acute respiratory syndrome coronavirus, 48 h; read-out: MPro EC50
[4] = recombinant SARS-CoV-2 Mpro, fluorogenic peptide substrate
[5] = Severe acute respiratory syndrome coronavirus, 48 h, read-out: MPro EC50

Compound	IC50 [1, 2] [nM]	EC50 (SARS-CoV-2-NLuc; read-out: MPro EC50) [nM]	EC50 (SARS-CoV-2-NLuc; [3]) [nM]	IC50 [1, 4] [nM]	EC50 (SARS-CoV-2-NLuc; [5]) [nM]
COc1cc(-c2cc3[nH]c(=O)n(-c4cncc5cccc(C)c45)c(=O)c3s2)c(Cl)cc1F (single isomer, unassigned) [Example 996, 6-(2-chloro-4-fluoro-5-methoxyphenyl)-3-(5-methylisoquinolin-4-yl)thieno[3,2-d]pyrimidine-2,4(1H,3H)-dione]	6390	1530			
COc1cc(-c2cc3c(s2)c(=O)n(-c2cncc4ccccc24)c(=O)n3C)c(Cl)cc1F [Example 993, 6-(2-chloro-4-fluoro-5-methoxy-phenyl)-3-(4-isoquinolyl)-1-methyl-thieno[3,2-d]pyrimidine-2,4-dione]	5.63		4.38		
O=c1[nH]c2cc(-c3ccccc3Cl)ccc2c(=O)n1-c1cnccc1C1CCOCC1 [Example 129]				1030	1230
COc1ccc(Cl)c(-c2cc3[nH]c(=O)n(-c4cncc5ccoc45)c(=O)c3s2)c1 [Example 493]	7.94				33.5
COc1cc(-c2cc3[nH]c(=O)n(-c4cncc5ccccc45)c(=O)c3s2)c(C#N)cc1F [Example 537]	6.15				19.2
COc1cccc(C#N)c1-c1cc2[nH]c(=O)n(-c3cncc4cnn(C)c34)c(=O)c2s1 [Example 839, 3-methoxy-2-(3-(1-methyl-1H-pyrazolo[4,3-c]pyridin-7-yl)-2,4-dioxo-1,2,3,4-tetrahydrothieno[3,2-d]pyrimidin-6-yl)benzonitrile]	91.3				463
COc1ccc(Cl)c(-c2cc3[nH]c(=O)n(-c4cncc5c4CCCO5)c(=O)c3s2)c1 [Example 599]	4.98				48.9
COc1cc(-c2cc3[nH]c(=O)n(-c4cncc5ncc(C)n45)c(=O)c3s2)c(Cl)cc1F [Example 1082]	18				91.1
Cc1cnnc(-n2c(=O)c3sc(-c4ccccc4C#N)cc3n(CCC#N)c2=O)c1 [Example 813]	32.5		362		
COc1cc(-c2cc3c(s2)c(=O)n(-c2cncc4nnn(C)c24)c(=O)n3CCC#N)c(Cl)cc1F (single isomer, unassigned) [Example 1058, 3-(6-(2-chloro-4-fluoro-5-methoxyphenyl)-3-(1-methyl-1H-[1,2,3]triazolo[4,5-c]pyridin-7-yl)-2,4-dioxo-3,4-dihydrothieno[3,2-d]pyrimidin-1(2H)-yl)propanenitrile]	2.86	5.15			
COc1cc(-c2cc3[nH]c(=O)n(-c4cncc5cc(C(=O)N6CCOCC6)sc45)c(=O)c3s2)c(Cl)cc1F [Example 649]	7.91				195
O=c1[nH]c2cc(-c3c(Cl)cccc3-c3ccc4c(c3)OCCO4)ccc2c(=O)n1-c1cncc2ccccc12 [Example 358]				177	113
Cc1nnn(C)c1-c1cccc(Cl)c1-c1ccc2c(=O)n(-c3cncc4ccccc34)c(=O)[nH]c2c1 [Example 313]				40.8	145
O=c1[nH]c2cc(-c3ccccc3Cl)sc2c(=O)n1-c1cncc2ccc(N3C[C@@H]4C[C@H]3CO4)cc12 [Example 393]	9				12.2
O=c1[nH]c2cc(-c3c(Cl)cccc3-c3ccc4c(c3)OC(F)(F)O4)ccc2c(=O)n1-c1cncc2ccccc12 [Example 357]				373	68.1
O=c1[nH]c2cc(-c3c(Cl)cccc3-c3ccc4nccn4c3)ccc2c(=O)n1-c1cncc2ccccc12 [Example 147]				11	17.1
COc1cc(Cl)c(-c2cc3c(s2)c(=O)n(-c2cncc4cnn(C)c24)c(=O)n3CCC#N)cc1F [Example 792]	8.29				12.3
COc1cc(-c2cc3c(s2)c(=O)n(-c2nncc4ccccc24)c(=O)n3CCC#N)c(Cl)cc1F [Example 929]	5.72				2.76
COc1cc(-c2cc3c(s2)c(=O)n(-c2cncc(C#CC(C)(C)S(C)(=O)=O)c2)c(=O)n3CCC#N)c(Cl)cc1F [Example 1039]	11.7				57.1
COc1cc(-c2cc3c(s2)c(=O)n(-c2cncc4ccccc24)c(=O)n3CC2(C#N)CC2)c(Cl)cc1F [Example 631, 1-[[6-(2-chloro-4-fluoro-5-methoxy-phenyl)-3-(4-isoquinolyl)-2,4-dioxo-thieno[3,2-d]pyrimidin-1-yl]methyl]cyclopropanecarbonitrile]	12.6		4.96		
COCCn1ncc2cncc(-n3c(=O)c4sc(-c5cc(OC)c(F)cc5Cl)cc4n(CCC#N)c3=O)c21 [Example 912]	4.9				4.36
COc1cc(-c2cc3[nH]c(=O)n(-c4cncc5ccccc45)c(=O)c3s2)c(Cl)cc1F (single isomer, unassigned) [Example 557, 6-(2-chloro-4-fluoro-5-methoxyphenyl)-3-(isoquinolin-4-yl)thieno[3,2-d]pyrimidine-2,4(1H,3H)-dione]	103	65.4			

Compound	IC50 [1, 2] [nM]	EC50 (SARS-CoV-2-NLuc; read-out: MPro EC50) [nM]	EC50 (SARS-CoV-2-NLuc; [3]) [nM]	IC50 [1, 4] [nM]	EC50 (SARS-CoV-2-NLuc; [5]) [nM]
N#Cc1ccncc1-c1cc2[nH]c(=O)n(-c3cncc4ccccc34)c(=O)c2s1 [Example 535]	39.6				432
N#Cc1cc(F)ccc1-c1cc2[nH]c(=O)n(-c3cncc4ccccc34)c(=O)c2s1 [Example 534]	30.6				80.5
O=c1[nH]c2cc(-c3c(Cl)cccc3-c3ccc4c(c3)CCS(=O)(=O)N4)ccc2c(=O)n1-c1cncc2ccccc12 [Example 327]				13.3	96.3
COc1ccc(C#N)c(-c2cc3[nH]c(=O)n(-c4cncc5ccc(N6CCn7nc(C(F)(F)F)nc7C6)cc45)c(=O)c3s2)c1 [Example 605]	10.1				91.2
COc1ccc(Cl)c(-c2cc3[nH]c(=O)n(-c4cncc5cc(F)ccc45)c(=O)c3s2)c1 [Example 580, 6-(2-chloro-5-methoxyphenyl)-3-(7-fluoroisoquinolin-4-yl)thieno[3,2-d]pyrimidine-2,4(1H,3H)-dione]	7.53				70.9
COc1cc(-c2cc3c(s2)c(=O)n(-c2cncc(C)n2)c(=O)n3CCC#N)c(Cl)cc1F [Example 894]	3.2				6.55
COc1cc(-c2cc3c(s2)c(=O)n(-c2cncc4ccccc24)c(=O)n3CCCC#N)c(Cl)cc1F [Example 660]	17.6				16.7
N#CCCn1c(=O)n(-c2cncc(C(F)(F)F)c2)c(=O)c2sc(-c3ccccc3C#N)cc21 [Example 890]	75		247		
O=C1COc2ccc(-c3cccc(Cl)c3-c3ccc4c(=O)n(-c5cncc6ccccc56)c(=O)[nH]c4c3)cc2N1 [Example 304]				11.5	20.5
COc1ccc(-c2cc(C)c3ncnn3c2)c(-c2ccc3c(=O)n(-c4cncc5ccccc45)c(=O)[nH]c3c2)c1 [Example 568, 3-(4-isoquinolyl)-7-[5-methoxy-2-(8-methyl-[1,2,4]triazolo[1,5-a]pyridin-6-yl)phenyl]-1H-quinazoline-2,4-dione]	5670				2640
COc1cc(-c2cc3c(s2)c(=O)n(-c2cncc4ncccc24)c(=O)n3CCC#N)c(Cl)cc1F [Example 915]	8.9				19.4
CS(=O)(=O)c1ccc(-c2cccc(Cl)c2-c2ccc3c(=O)n(-c4cncc5ccccc45)c(=O)[nH]c3c2)cn1 [Example 204]				11.7	49
COc1cnc(Cl)c(-c2cc3c(s2)c(=O)n(-c2cncc4cccc(F)c24)c(=O)n3CCC#N)c1 [Example 1083, 3-(6-(2-chloro-5-methoxypyridin-3-yl)-3-(5-fluoroisoquinolin-4-yl)-2,4-dioxo-3,4-dihydrothieno[3,2-d]pyrimidin-1(2H)-yl)propanenitrile]	11.1		36.6		
COc1cc(-c2cc3c(s2)c(=O)n(-c2cncc4cnn(C)c24)c(=O)n3CC#N)c(C#N)cc1F [Example 693]	2.56				94.2
O=c1[nH]c2cc(-c3ccccc3Cl)sc2c(=O)n1-c1cncc2ccc(N3CCC(F)(F)C3)cc12 [Example 413]	5.46				66.8
COc1ccc(Cl)c(-c2cc3[nH]c(=O)n(-c4cncc5ccc(N6CCNC(=O)C6)cc45)c(=O)c3s2)c1 [Example 416]	4.63				187
COc1cc(-c2cc3[nH]c(=O)n(-c4cncc5ccccc45)c(=O)c3cc2F)c(C#N)cc1F (single isomer, unassigned) [Example 510, 5-fluoro-2-[6-fluoro-3-(4-isoquinolyl)-2,4-dioxo-1H-quinazolin-7-yl]-4-methoxy-benzonitrile]	7.05	16.2			
Cc1c(F)cncc1-n1c(=O)c2sc(-c3cc(F)c(F)cc3Cl)cc2n(CCC#N)c1=O [Example 850]	26.7		54.2		
C#Cc1cccc(Cl)c1-c1ccc2c(=O)n(-c3cncc4ccccc34)c(=O)[nH]c2c1 [Example 159, 7-(2-chloro-6-ethynyl-phenyl)-3-(4-isoquinolyl)-1H-quinazoline-2,4-dione]				988	335
COc1cc(-c2cc3c(s2)c(=O)n(-c2cncc4cnn(C)c24)c(=O)n3CCc2nnn[nH]2)c(Cl)cc1F [Example 1002, 6-(2-chloro-4-fluoro-5-methoxy-phenyl)-3-(1-methylpyrazolo[4,3-c]pyridin-7-yl)-1-[2-(1H-tetrazol-5-yl)ethyl]thieno[3,2-d]pyrimidine-2,4-dione]	33.8	110			
O=c1[nH]c2cc(-c3c(Cl)cccc3-c3cncc(C(F)(F)F)c3)ccc2c(=O)n1-c1cncc2ccccc12 [Example 206]				42.4	20.6
COc1cc(-c2cc3c(s2)c(=O)n(-c2cncc4nc(C)n(C5CC5)c24)c(=O)n3CCC#N)c(Cl)cc1F [Example 990]	4.1				14.1
